From US20140323300A1, “HERBICIDAL COMPOUNDS” (SYNGENTA LIMITED, priority 2011, published 2014)

Columns and labels:
Type in all cases: in vivo
[1] = system: Alopecurus myosuroides (ALOMY); experiment: Post-emergence glasshouse herbicide test; conditions: post-emergence (sprayed after 8 days cultivation), 1000 g/h, evaluated after 13 days, five point scale
Summary of the method: (§1)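 Damage was rated 13 days after treatment on a five-point scale (1 = 0–19%, 5 = 80–100%). The compound, formulated in 50:50 acetone/water with 0.5% Tween 20, was sprayed at 1000 g/h on pots one day (pre) or 8 days (post) after sowing, kept in a glasshouse at 24/16° C, 14 h light, 65% humidity.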

[2] = system: Amaranthus retoflexus (AMARE); experiment: Post-emergence glasshouse herbicide test; conditions: post-emergence (sprayed after 8 days cultivation), 1000 g/h, evaluated after 13 days, five point scale
Summary of the method: as §1

[3] = system: Echinochloa crus-galli (ECHCG); experiment: Post-emergence glasshouse herbicide test; conditions: post-emergence (sprayed after 8 days cultivation), 1000 g/h, evaluated after 13 days, five point scale
Summary of the method: as §1

[4] = system: Ipomoea hederacea (IPOHE); experiment: Post-emergence glasshouse herbicide test; conditions: post-emergence (sprayed after 8 days cultivation), 1000 g/h, evaluated after 13 days, five point scale
Summary of the method: as §1

Setaria faberi (SETFA) [5] = experiment: Post-emergence glasshouse herbicide test; conditions: post-emergence (sprayed after 8 days cultivation), 1000 g/h, evaluated after 13 days, five point scale
Summary of the method: as §1

Solanum nigrum (SOLNI) [6] = experiment: Post-emergence glasshouse herbicide test; conditions: post-emergence (sprayed after 8 days cultivation), 1000 g/h, evaluated after 13 days, five point scale
Summary of the method: as §1

[7] = system: Alopecurus myosuroides (ALOMY); experiment: Pre-emergence glasshouse herbicide test; conditions: pre-emergence (sprayed after one day cultivation), 1000 g/h, evaluated after 13 days, five point scale
Summary of the method: as §1

[8] = system: Amaranthus retoflexus (AMARE); experiment: Pre-emergence glasshouse herbicide test; conditions: pre-emergence (sprayed after one day cultivation), 1000 g/h, evaluated after 13 days, five point scale
Summary of the method: as §1

[9] = system: Echinochloa crus-galli (ECHCG); experiment: Pre-emergence glasshouse herbicide test; conditions: pre-emergence (sprayed after one day cultivation), 1000 g/h, evaluated after 13 days, five point scale
Summary of the method: as §1

[10] = system: Ipomoea hederacea (IPOHE); experiment: Pre-emergence glasshouse herbicide test; conditions: pre-emergence (sprayed after one day cultivation), 1000 g/h, evaluated after 13 days, five point scale
Summary of the method: as §1

Setaria faberi (SETFA) [11] = experiment: Pre-emergence glasshouse herbicide test; conditions: pre-emergence (sprayed after one day cultivation), 1000 g/h, evaluated after 13 days, five point scale
Summary of the method: as §1

Solanum nigrum (SOLNI) [12] = experiment: Pre-emergence glasshouse herbicide test; conditions: pre-emergence (sprayed after one day cultivation), 1000 g/h, evaluated after 13 days, five point scale
Summary of the method: as §1

| SMILES | percentage damage caused to the plant, POST Application ALOMY [1] | percentage damage caused to the plant, POST Application AMARE [2] | percentage damage caused to the plant, POST Application ECHCG [3] | percentage damage caused to the plant, POST Application IPOHE [4] | percentage damage caused to the plant, POST Application SETFA (Setaria faberi (SETFA) [5]) | percentage damage caused to the plant, POST Application SOLNI (Solanum nigrum (SOLNI) [6]) | percentage damage caused to the plant, PRE Application ALOMY [7] | percentage damage caused to the plant, PRE Application AMARE [8] | percentage damage caused to the plant, PRE Application ECHCG [9] | percentage damage caused to the plant, PRE Application IPOHE [10] | percentage damage caused to the plant, PRE Application SETFA (Setaria faberi (SETFA) [11]) | percentage damage caused to the plant, PRE Application SOLNI (Solanum nigrum (SOLNI) [12]) |
| --- | --- | --- | --- | --- | --- | --- | --- | --- | --- | --- | --- | --- |
| C=Cc1cnn(-c2ccc(C(F)(F)F)cc2S(C)(=O)=O)c(=O)c1O [Compound 1.053] | 4 (4=60-79%) | 5 (5=80-100%) | 5 (5=80-100%) | 5 (5=80-100%) | 5 (5=80-100%) | 5 (5=80-100%) | 4 (4=60-79%) | 5 (5=80-100%) | 5 (5=80-100%) | 5 (5=80-100%) | 5 (5=80-100%) | 5 (5=80-100%) |
| CS(=O)(=O)c1cc(C(F)(F)F)ccc1-n1ncc(C2CC2)c(O)c1=O [Compound 1.031] | 5 (5=80-100%) | 5 (5=80-100%) | 5 (5=80-100%) | 5 (5=80-100%) | 5 (5=80-100%) | 5 (5=80-100%) | 5 (5=80-100%) | 5 (5=80-100%) | 5 (5=80-100%) | 5 (5=80-100%) | 5 (5=80-100%) | 5 (5=80-100%) |
| CS(=O)(=O)c1cc(C(F)(F)F)ccc1-n1ncc(S(C)(=O)=O)c(O)c1=O [Compound 1.042] | 1 (1=0-19%) | 2 (2=20-39%) | 1 (1=0-19%) | 1 (1=0-19%) | 1 (1=0-19%) | 2 (2=20-39%) | 1 (1=0-19%) | 2 (2=20-39%) | 1 (1=0-19%) | 1 (1=0-19%) | 1 (1=0-19%) | 2 (2=20-39%) |
| Cc1c(-n2ncc([S+](C)[O-])c(O)c2=O)ccc(S(C)(=O)=O)c1C1=NOCC1 (stereo not drawn) [Compound 1.043] | 1 (1=0-19%) | 5 (5=80-100%) | 3 (3=40-59%) | 3 (3=40-59%) | 3 (3=40-59%) | 4 (4=60-79%) | 1 (1=0-19%) | 5 (5=80-100%) | 3 (3=40-59%) | 3 (3=40-59%) | 3 (3=40-59%) | 4 (4=60-79%) |
| Cc1nc(C(F)(F)F)ccc1-n1ncc(Cl)c(O)c1=O [Compound 1.019] | 5 (5=80-100%) | 5 (5=80-100%) | 5 (5=80-100%) | 5 (5=80-100%) | 5 (5=80-100%) | 5 (5=80-100%) | 5 (5=80-100%) | 5 (5=80-100%) | 5 (5=80-100%) | 5 (5=80-100%) | 5 (5=80-100%) | 5 (5=80-100%) |
| CCc1cnn(-c2ccc(C(F)(F)F)nc2S(C)(=O)=O)c(=O)c1O [Compound 1.036] | 5 (5=80-100%) | 5 (5=80-100%) | 5 (5=80-100%) | 5 (5=80-100%) | 5 (5=80-100%) | 5 (5=80-100%) | 5 (5=80-100%) | 5 (5=80-100%) | 5 (5=80-100%) | 5 (5=80-100%) | 5 (5=80-100%) | 5 (5=80-100%) |
| CCc1cnn(-c2ccc(Cl)cc2S(C)(=O)=O)c(=O)c1O [Compound 1.037] | 5 (5=80-100%) | 5 (5=80-100%) | 5 (5=80-100%) | 4 (4=60-79%) | 5 (5=80-100%) | 5 (5=80-100%) | 5 (5=80-100%) | 5 (5=80-100%) | 5 (5=80-100%) | 4 (4=60-79%) | 5 (5=80-100%) | 5 (5=80-100%) |
| CC(=O)NC(C)(C)Cc1cnn(-c2ccc(C(F)(F)F)cc2S(C)(=O)=O)c(=O)c1O [Compound 1.044] | 1 (1=0-19%) | 5 (5=80-100%) | 5 (5=80-100%) | 4 (4=60-79%) | 2 (2=20-39%) | 4 (4=60-79%) | 1 (1=0-19%) | 5 (5=80-100%) | 5 (5=80-100%) | 4 (4=60-79%) | 2 (2=20-39%) | 4 (4=60-79%) |
| O=c1c(O)c(Cl)cnn1-c1ccc(Cl)cc1Cl [Compound 1.001] | 1 (1=0-19%) | 5 (5=80-100%) | 5 (5=80-100%) | 5 (5=80-100%) | 5 (5=80-100%) | 5 (5=80-100%) | 2 (2=20-39%) | 4 (4=60-79%) | 4 (4=60-79%) | 1 (1=0-19%) | 4 (4=60-79%) | 3 (3=40-59%) |
